Test systems include SK-MEL-5 melanoma; HOP-62 NSCLC; TK-10 renal; HL-60(TB) leukemia; SW-620 colon; MDA-N; HCT-116 colon; A549 NSCLC; OVCAR-5 ovarian; ACHN renal; MCF7 breast; OVCAR-8 ovarian; HCC-2998 colon; LOX IMVI melanoma; NCI-H23 lung; SR leukemia; COLO 205 colon.
Test in all cases: NCI-60 cell line screen, 48 h

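Step 1: Grow cells in 96-well plates. Step 2: Expose to compound for 48 hours at 5 concentrations. Step 3: Interpolate endpoints linearly; if unreached, use highest concentration. TGI denotes the concentration required for complete inhibition of growth.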

Among the data in PubChem BioAssay (NCI) are TGI values, retold here.

Regarding `C[C@H]1CCC/C=C/[C@@H]2C[C@H](OC(=O)CN(C)C)C[C@H]2[C@H](O)/C=C/C(=O)O1`, the TGI was 0.0944 µM with SK-MEL-5 melanoma; greater than 100 µM in the experiment on HOP-62 NSCLC; 1.93 µM in the experiment on TK-10 renal; 6.2 µM with HL-60(TB) leukemia; 4.53 µM in the experiment on SW-620 colon; greater than 100 µM with MDA-N. Besides, the TGI in the experiment with HCT-116 colon was 0.746 µM; in the experiment with A549 NSCLC, greater than 100 µM; in the experiment on OVCAR-5 ovarian, 5.68 µM; with ACHN renal, 11.4 µM; in the experiment on MCF7 breast, 4.31 µM; in the experiment on OVCAR-8 ovarian it was 5.54 µM. In addition, the TGI was determined as 0.235 µM in the experiment on HCC-2998 colon; 0.219 µM with LOX IMVI melanoma; 0.909 µM in the experiment with NCI-H23 lung; 3.49 µM in the experiment on SR leukemia; 0.0997 µM in the experiment with COLO 205 colon.

Take `CCN(CC)/[N+]([O-])=N/OS(=O)(=O)N(C)C`: the TGI in the experiment with SK-MEL-5 melanoma, with HOP-62 NSCLC, with TK-10 renal, in the experiment on HL-60(TB) leukemia, with SW-620 colon and in the experiment on MDA-N was greater than 100 µM throughout. The TGI with HCT-116 colon, in the experiment with A549 NSCLC, with OVCAR-5 ovarian, in the experiment with ACHN renal, with MCF7 breast and in the experiment on OVCAR-8 ovarian was greater than 100 µM throughout. Also, the TGI in the experiment with HCC-2998 colon, in the experiment with LOX IMVI melanoma, in the experiment with NCI-H23 lung, with SR leukemia and in the experiment on COLO 205 colon was greater than 100 µM throughout.

`Cc1nc2ccc(N=Nc3c(C)noc3C)cc2[nH]1`: the TGI with SK-MEL-5 melanoma was 29.8 µM; in the experiment on HOP-62 NSCLC, greater than 100 µM; in the experiment with TK-10 renal, greater than 100 µM; in the experiment on HL-60(TB) leukemia it was 61.6 µM; with SW-620 colon, greater than 100 µM; with MDA-N, greater than 100 µM. Moreover, the TGI in the experiment on HCT-116 colon was 91.4 µM; in the experiment with A549 NSCLC, greater than 100 µM; in the experiment with OVCAR-5 ovarian, greater than 100 µM; with ACHN renal, 86.2 µM; in the experiment with MCF7 breast, 84 µM; with OVCAR-8 ovarian, 89.6 µM. Further, the TGI is greater than 100 µM in the experiment with HCC-2998 colon; 39.2 µM in the experiment on LOX IMVI melanoma; greater than 100 µM with NCI-H23 lung; 69.9 µM with SR leukemia; 34.5 µM with COLO 205 colon.
